According to patent US20200069714A1, “AMINOGLYCOSIDE POTENTIATION FOR TREATMENT OF PULMONARY BACTERIAL INFECTION” (Enbiotix, Inc., priority 2016, published 2020):
Entries after “also recorded” stand apart in the source; their conditions may differ.

Key:
[1] = potentiation in the presence of CF patient sputum; type: cell-based
[2] = system: PAO1 laboratory strains of Pseudomonas aeruginosa; experiment: planktonic stationary phase (PSP) time kill potentiation assay, laboratory strain; type: cell-based
Protocol: (§1) The following examples use an in vitro potentiation assay, termed planktonic stationary phase (PSP) time kill assay. In this assay, bacterial cultures in planktonic stationary phase are used to select for bacterial persisters. Experiments are conducted using the time-kill method (CLSI M26), to evaluate bacterial strains, varying the concentration of aminoglycoside and potentiator. Cultures of persisters are generated by growing the bacteria in lysogeny broth (LB) medium for 16 hours. After 4 hr of exposure to the aminoglycoside plus potentiator combination in M9 minimal medium, cells are enumerated on LB plates.
Tobramycin has been measured at about 50 to 90 μg/ml of tobramycin in the lung epithelial lining after delivery of a 300 mg dose of tobramycin to cystic fibrosis patients by nebulizer. Ruddy J. et al., Sputum Tobramvcin Concentrations in Cystic Fibrosis Patients with Repeated Administration of Inhaled Tobramycin, J. of Aerosol Med. and Pulmon. Drug Del. 26(2):69-75 (2013).

[3] = system: Human Airway Epithelial cells infected with Pseudomonas; conditions: in combination with tobramycin
Protocol: The impact of fumarate on Human Airway Epithelial cells was tested using an LDH assay. See Moreau-Marquis S, Tobramycin and FDA-Approved Iron Chelators Eliminate Pseudomonas aeruginosa Biofilms on Cystic Fibrosis Cells, Am. J. Respir. Cell Mol. Biol. Vol. 41, 305-313 (2009). LDH levels are measured in the medium (Apical and Basolateral fluids) and inside cells. Cytotoxicity can be expressed as: [LDHAP-BL/(LDHPAP-BL+LDHcells)]×100. […] Results are normalized to PAO1 untreated for 100% cytotoxicity. Significance (*) is between strain plus tobramycin and strain plus tobramycin with potentiator.

naïve bacterial biofilm [4] = experiment: 96-well plate biofilm assay; type: cell-based; conditions: 15 mM fumarate, naïve cultures
Protocol: (§2) The potentiation effect for tobramycin was tested in two biofilm assays: colony biofilm assay and 96-well plate biofilm assay.

PAO1 strain = experiment: potentiation assay in the presence of tobramycin and azithromycin; type: cell-based, Pseudomonas aeruginosa; conditions: 15 mM fumarate
Protocol: as §1
The potentiation effect was tested in the presence of both tobramycin and azithromycin. […] Results are for PAO1 strain.

[5] = system: tobramycin-sensitive COPD clinical isolates; experiment: PSP potentiation assay with COPD clinical isolates; type: cell-based, Pseudomonas aeruginosa; conditions: 15 mM fumarate; early or late stage COPD isolates
naïve bacterial biofilm [6] = experiment: colony biofilm assay; type: cell-based; conditions: 15 mM fumarate, naïve cultures
Protocol: as §2

[7] = system: P. aeruginosa mucoid and non-mucoid CF clinical isolates; experiment: colony biofilm assay with CF clinical isolates; type: cell-based; conditions: fumarate with tobramycin
Protocol: as §2

[8] = potentiation in artificial sputum media; type: cell-based; conditions: 15 mM fumarate; with and without amino acids
Protocol: In the presence of artificial sputum media with and without amino acids, some tolerance is observed, but the potentiation of tobramycin with 15 mM fumarate remains an improvement of several logs (FIG. 9).

[9] = cited from earlier work

Row | SMILES | potentiation in the presence of CF sputum [1] [logs] | potentiation of tobramycin sensitivity in the persister assay ([2]; 15 mM fumarate, PAO1, 4 hr exposure in M9 minimal medium) | fumarate concentration with potential to decrease airway inflammation [3] | potentiation of tobramycin in 96-well plate biofilm assay (naïve bacterial biofilm [4]) | potentiation of tobramycin in the presence of azithromycin (PAO1 strain) | potentiation of tobramycin action against COPD strains [5] | potentiation of tobramycin in colony biofilm assay (naïve bacterial biofilm [6]) | effect on P. aeruginosa in colony biofilms from CF clinical isolates [7] | potentiation of tobramycin in artificial sputum media [8] | mean tobramycin concentration in expectorated sputum ([9]; 10 minutes after delivery of 300 mg by nebulizer, CF patients) | tobramycin concentration in the lung epithelial fluid (induced sputum), estimated ([9]; after 300 mg delivered by nebulizer) [µg/g] | tobramycin concentration at which maximum bactericidal activity was observed ([2]; with 15 mM fumarate (Met1)) [µg/mL]
1 | O=C(O)/C=C/C(=O)O [fumarate] | 3 | over 5 logs | above 7.5 mM | potentiates tobramycin action; also recorded: shows potentiation of tobramycin | over 3 logs | effective to potentiate tobramycin action against all COPD strains tested | potentiates tobramycin action; also recorded: shows potentiation of tobramycin | eradication of P. aeruginosa | several logs | – | – | –
2 | NC[C@H]1O[C@H](O[C@H]2[C@H](O)[C@@H](O[C@H]3O[C@H](CO)[C@@H](O)[C@H](N)[C@H]3O)[C@H](N)C[C@@H]2N)[C@H](N)C[C@@H]1O [tobramycin] | – | – | – | – | – | – | – | – | – | 1,237 μg/g of sputum | ~128 | 16
